Experimental data published in patent US12648941B2, “Piperidine urea derivatives for use as inotropic agents” (Helsinn Healthcare SA, priority 2021, dated 2026).

Legend:
[1] = test system: cardiomyocytes isolated from hearts of SHAM mice; test: Cardiomyocyte contractility (fractional shortening, % FS), SHAM cardiomyocytes; assay type: cell-based, mouse; conditions: antagonist 3 μM before AC01/HM01 1 μM
Protocol: (§1) Cardiomyocytes were isolated freshly from cardiac ventricles separately from SHAM and HF mice following the protocol developed by the Alliance for Cellular Signalling (AfCS Procedure Protocol ID PP00000125). From each of the 5 SHAM and 3 HF hearts a cell suspension was made and divided into 10 aliquots each, for a total of 50 aliquots from SHAM and 30 aliquots from HF hearts. These aliquots were treated with vehicle, AC01/HM01 or D-Lys3-GHPR-6+AC01/HM01 as stated and used for the subsequent physiological and biochemical experiments.
(§2) AC01/HM01 was suspended in phosphate buffer saline solution (PBS: in mM: NaCl 137, KCl 7, Na2HPO4 10, KH2PO4 […]) and diluted to obtain 3 different concentrations: 0.2, 0.5 or 1 μM in Tyrode solution. We used a concentration range within 0.2-1 μM to ensure that the receptor was activated. […] Prior to contractility and Ca^2+ signaling measurements and biochemical assays, cardiomyocyte suspensions from SHAM and HF hearts were randomized to 3 types of treatments: vehicle, AC01/HM01, or D-Lys3-GHPR-6+AC01/HM01. The treatment with different agents occurred for 15 minutes at room temperature. Some cell suspension aliquots were flash frozen in liquid N2 and stored at −80° C. for later biochemistry analyses. All the experiments were conducted blinded regarding the treatment of cardiomyocytes.
Fresh isolated cardiomyocytes were aliquoted in 1.5 mL tubes and incubated with a cell permeable form of the fluorescent Ca^2+ indicator Fluo-3 AM for approximately 20 minutes followed by washing for >5 min. The cells were plated on laminin coated glass bottom dishes (35 mm, Mattek, Ashland, MA, USA), and then mounted in a custom built perfusion/stimulation chamber. Cells were continuously perfused with O2/CO2 (95/5%) bubbled Tyrode solution with the following composition (in mM): NaCl 121, KCl 5.0, CaCl2 1.8, MgCl2 0.5, NaH2PO4 0.4, NaHCO3 24, EDTA 0.1, glucose 5.5, which represents the vehicle solution.
15 aliquots of cardiomyocyte suspension from SHAM and 9 aliquots from HF were randomized to different treatments: vehicle, AC01/HM01 (0.2, 0.5 or 1 μM) or pretreatment with D-Lys3-GHPR-6 (3 μM) followed by AC01/HM01 (1 μM). The cardiomyocytes were electrically stimulated to contract at 1 Hz with supra-threshold voltage using two platinum electrodes attached to the perfusion/stimulation chamber.
(§3) Line scan fluorescence images were acquired using a confocal microscope (Biorad; 40× oil immersion lenses). […] ImageJ software (open source software developed by NIH, Bethesda, USA) was used to quantify changes in fluorescence (Ca^2+ transients) and contractility of single cardiomyocytes.
(§4) The contractility of cardiomyocytes was measured as the percent of length shortening (fractional shortening; % FS). […]

[2] = test system: cardiomyocytes isolated from hearts of heart failure (HF) mice; test: Cardiomyocyte contractility (fractional shortening, % FS), heart failure (MI) cardiomyocytes; assay type: cell-based, mouse; conditions: antagonist 3 μM before AC01/HM01 1 μM
Protocol: as §1
AC01/HM01 was suspended in phosphate buffer saline solution (PBS: in mM: NaCl 137, KCl 7, Na2HPO4 10, KH2PO4 […]) and diluted to obtain 3 different concentrations: 0.2, 0.5 or 1 μM in Tyrode solution. We used a concentration range within 0.2-1 μM to ensure that the receptor was activated. […]
as §3, §4

[3] = test system: phospho (Ser 22-23) cardiac troponin I (cTnl); test: Phospho (Ser 22-23) cTnl western blot in cardiomyocytes; assay type: cell-based, mouse; conditions: SHAM cardiomyocytes, antagonist 3 μM before AC01/HM01 1 μM
Protocol: as §2
Aliquots of frozen cardiomyocyte suspensions were lysed using NP40 buffer (Thermo Fisher FNN0021, Stockholm, Sweden) supplemented with phosphatase inhibitors (Sigma-Aldrich P2850-1ML, P5726-1ML, Stockholm, Sweden). Protein lysates were separated by electrophoresis and transferred onto membranes. Membranes were incubated with primary antibody: rabbit anti phospho (Ser 22-23) cardiac troponin I (cTnl, Cell Signalling, Leiden, The Netherlands #4004S) and rabbit anti-cTnl (Cell Signalling #4002S, Leiden, The Netherlands). Thereafter, infrared-labelled secondary antibodies (IRDye 680 and IRDye 800, 1:5000, Licor) were used. Immunoreactive bands were analyzed using the Odyssey Infrared Imaging System (Li-Cor, Bad Homburg, Germany). Band densities were quantified with Image J (NIH, Bethesda, USA), normalized to total cTnl and final data was expressed as fold increase compared to bands representing protein extracted from vehicle treated cells.

Protein kinase A (PKA) = test: PKA activity assay in cardiomyocytes (ELISA-based kit); assay type: cell-based, mouse; conditions: isolated cardiomyocytes, pretreatment before AC01/HM01 1 μM
Protocol: as §2
Elisa-based PKA kinase activity assay kit (ab139435, Abcam, Cambridge, UK) was employed to determine PKA activity in cardiomyocytes. Aliquots of frozen cardiomyocytes were thawed and mixed with a lysis buffer containing (mM) the following: 20 MOPS, 50 β-glycerolphosphate, 5 EGTA, 2 EDTA, 1 benzamidine, 1 sodium orthovanadate, 1% NP40, 1 DTT, complete protease inhibitor cocktail (Roche Diagnostics, West Sussex, UK) and phosphatase inhibitor cocktail 3 (Sigma, Gillingham, UK). Approximately 2 μg of protein of each sample were assayed according to the manufacturer's instructions 27.

ghrelin receptor = ghrelin receptor (Homo sapiens, UniProt Q92847); conditions: ghrelin receptor antagonist; Sigma Aldrich; read-out: IC50 for antagonistic activity; cited from earlier work
Sequence of ghrelin receptor (Q92847 whole entry, species assumed): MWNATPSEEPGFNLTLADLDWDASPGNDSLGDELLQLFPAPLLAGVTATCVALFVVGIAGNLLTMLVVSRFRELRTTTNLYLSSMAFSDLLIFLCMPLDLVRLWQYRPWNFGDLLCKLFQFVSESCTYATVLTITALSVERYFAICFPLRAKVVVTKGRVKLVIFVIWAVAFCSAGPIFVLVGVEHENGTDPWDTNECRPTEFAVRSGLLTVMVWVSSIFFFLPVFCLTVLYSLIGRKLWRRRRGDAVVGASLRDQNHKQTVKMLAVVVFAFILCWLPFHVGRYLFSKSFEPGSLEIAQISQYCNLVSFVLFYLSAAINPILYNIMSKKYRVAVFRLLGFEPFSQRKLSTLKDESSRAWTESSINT

Substance: D-Lys 3 GHRP-6 [reference compound]
- effect of pretreatment on contractile effect of AC01/HM01 [1]: blocked the contractile effect
- effect of pretreatment on contractile effect of AC01/HM01 [2]: blocked the contractile effect
- effect of pretreatment on AC01/HM01-induced change of cTnl phosphorylation ([3]; listed as D-Lys3): blocked this effect
- effect of pretreatment on AC01/HM01-induced change of cTnl phosphorylation ([3]; listed as D-Lys3—GHRP-6): restored the phosphorylation levels of cTnl to physiologic levels
- effect of pretreatment on AC01/HM01-induced change of PKA activity (Protein kinase A (PKA); listed as D-Lys 3): blocked
- effect of pretreatment on AC01/HM01-induced change of PKA activity (Protein kinase A (PKA); listed as D-Lys 3-GHRP-6): restored the PKA activity to physiologic levels
- IC50 (ghrelin receptor): 900 nM
